In brackets after ≈: the same amount, converted by molar mass. Several values for one entry are separate records, joined by “and”; a condition that tells them apart may be missing. Equal entries are not always repeated.

The subject of one assay is Standard Strain H37Rv of mycobacterium tuberculosis. As to the kind of experiment: MIC against standard strain H37Rv by Microplate Alamar Blue Assay (MABA). The class given is cell-based. To be noted: M. tuberculosis H37Rv, 7H9 medium, 37° C. On the technique in general: Resazurin is reduced to fluorescent resorufin, in cell work by metabolically active cells.
For orientation: MIC means the lowest concentration that inhibits growth of the organism. Regarding `COc1cc2ccc(Br)cc2cc1C(c1cccc(Cl)c1)C(O)(CCN(C)C)c1cccc2ccccc12` (stereo not drawn) [Compound 36, 1-(3-chlorophenyl)-2-(1-naphthyl)-1-[2-(7-bromo-3-methoxy)naphthyl]-4-(N,N-dimethylamino)-butan-2-ol], the MIC is 3.773 µg/mL (≈ 6.41 µM).
`COc1cc2ccccc2cc1C(c1ccc(Cl)cc1)C(O)(CCN(C)C)c1cccc2ccccc12` (single isomer, unassigned) [Compound 6, 1-(4-chlorophenyl)-2-(1-naphthyl)-1-[2-(3-methoxy)naphthyl]-4-(N,N-dimethylamino)-butan-2-ol] came in with an MIC of 1.454 µg/mL (≈ 2.85 µM).
On the same count and under the same terms, the result for `COc1cc2ccc(Br)cc2cc1C(c1ccc(Cl)cc1)C(O)(CCN(C)C)c1ccccc1Br` (stereo not drawn) [Compound 21, 1-(4-chlorophenyl)-2-(2-bromophenyl)-1-[2-(7-bromo-3-methoxy)naphthyl]-4-(N,N-dimethylamino)-butan-2-ol] reads 2.000 µg/mL (≈ 3.24 µM); that for `COc1cc2ccc(Br)cc2cc1C(c1ccccc1)C(O)(CCN(C)C)c1cccc2ccccc12` (stereo not drawn) [Compound 26, 1-phenyl-2-(1-naphthyl)-1-[2-(7-bromo-3-methoxy)naphthyl]-4-(N,N-dimethylamino)-butan-2-ol], 1.977 µg/mL (≈ 3.57 µM); that for `COc1cc2ccc(Br)cc2cc1C(c1ccc(Cl)cc1)C(O)(CCN(C)C)c1ccccc1Br` (stereo not drawn) [Compound 22, 1-(4-chlorophenyl)-2-(2-bromophenyl)-1-[2-(7-bromo-3-methoxy)naphthyl]-4-(N,N-dimethylamino)-butan-2-ol], 0.111 µg/mL (≈ 0.18 µM).
Molecule `COc1cc2ccc(Br)cc2cc1C(c1ccc(Cl)cc1)C(O)(CCN(C)C)c1cccc2ccccc12` (single isomer, unassigned) [Compound 3, 1-(4-chlorophenyl)-2-(1-naphthyl)-1-[2-(7-bromo-3-methoxy)naphthyl]-4-(N,N-dimethylamino)-butan-2-ol] displayed an MIC of 2.883 µg/mL (≈ 4.89 µM).
Same read-out and setting: the result for `COc1cc2ccccc2cc1C(c1ccc(Cl)cc1)C(O)(CCN(C)C)c1cccc2ccccc12` (single isomer, unassigned) [Compound 5, 1-(4-chlorophenyl)-2-(1-naphthyl)-1-[2-(3-methoxy)naphthyl]-4-(N,N-dimethylamino)-butan-2-ol] reads 3.052 µg/mL (≈ 5.98 µM).
On the same count and under the same terms, the result for `COc1cc2ccc(Br)cc2cc1C(c1ccc(Cl)cc1)C(O)(CCN(C)C)c1ccccc1` (stereo not drawn) [Compound 18, 1-(4-chlorophenyl)-2-phenyl-1-[2-(7-bromo-3-methoxy)naphthyl]-4-(N,N-dimethylamino)-butan-2-ol] reads 0.109 µg/mL (≈ 0.202 µM).
Still for that read-out and setting: the result for `COc1cc2ccccc2cc1C(c1ccccc1)C(O)(CCN(C)C)c1cccc2ccccc12` (stereo not drawn) [Compound 2, 1-phenyl-2-(1-naphthyl)-1-[2-(3-methoxy)-naphthyl]-4-(N,N-dimethylamino)-butan-2-ol] reads 3.178 µg/mL (≈ 6.68 µM).
Consider `COc1cc2ccc(Br)cc2cc1C(c1ccc(Cl)cc1)C(O)(CCN(C)C)c1ccc(Br)cc1` (stereo not drawn) [Compound 8, 1-(4-chlorophenyl)-2-(4-bromophenyl)-1-[2-(7-bromo-3-methoxy)naphthyl]-4-(N,N-dimethylamino)-butan-2-ol], for which the MIC is 0.956 µg/mL (≈ 1.55 µM).
For `COc1cc2ccc(Br)cc2cc1C(c1ccccc1)C(O)(CCN(C)C)c1ccccc1` (stereo not drawn) [Compound 20, 1,2-diphenyl-1-[2-(7-bromo-3-methoxy)naphthyl]-4-(N,N-dimethylamino)-butan-2-ol], the MIC is 2.000 µg/mL (≈ 3.96 µM).
Still for that read-out and setting: the result for `COc1cc2ccc(Br)cc2cc1C(c1cccc(Cl)c1)C(O)(CCN(C)C)c1cccc2ccccc12` (stereo not drawn) [Compound 35, 1-(3-chlorophenyl)-2-(1-naphthyl)-1-[2-(7-bromo-3-methoxy)naphthyl]-4-(N,N-dimethylamino)-butan-2-ol] reads 0.114 µg/mL (≈ 0.194 µM); that for `CN(C)CCC(O)(c1cccc2ccccc12)C(c1ccccc1)c1cc2cc(Br)ccc2c(Br)c1O` (stereo not drawn) [Compound 33, 1,6-dibromo-3-[1-phenyl 2-(1-naphthyl)-2-hydroxy-4-(N,N-dimethylamino)]butyl-2-naphthol], 1.000 µg/mL (≈ 1.61 µM); that for `COc1cc2ccc(Br)cc2cc1C(c1ccccc1)C(O)(CCN(C)C)c1ccc(Br)cc1` (stereo not drawn) [Compound 9, 1-phenyl-2-(4-bromophenyl)-1-[2-(7-bromo-3-methoxy)naphthyl]-4-(N,N-dimethylamino)-butan-2-ol], 0.118 µg/mL (≈ 0.202 µM).
`COc1cc2ccc(Br)cc2cc1C(c1ccccc1)C(O)(CCN(C)C)c1ccccc1` (stereo not drawn) [Compound 19, 1,2-diphenyl-1-[2-(7-bromo-3-methoxy)naphthyl]-4-(N,N-dimethylamino)-butan-2-ol] gave an MIC of 0.206 µg/mL (≈ 0.408 µM).
Still for that read-out and setting: the result for `COc1cc2ccc(Br)cc2cc1C(c1ccccc1)C(O)(CCN(C)C)c1ccc(Br)cc1` (stereo not drawn) [Compound 10, 1-phenyl-2-(4-bromophenyl)-1-[2-(7-bromo-3-methoxy)naphthyl]-4-(N,N-dimethylamino)-butan-2-ol] reads 2.000 µg/mL (≈ 3.43 µM); that for `COc1c(C(c2ccccc2)C(O)(CCN(C)C)c2cccc3ccccc23)cc2cc(Br)ccc2c1Br` (stereo not drawn) [Compound 32, 1-phenyl-2-(1-naphthyl)-1-[2-(4,7-dibromo-3-methoxy)naphthyl]-4-(N,N-dimethylamino)-butan-2-ol], 1.000 µg/mL (≈ 1.58 µM); that for `COc1cc2ccc(Br)cc2cc1C(c1ccccc1)C(O)(CCN(C)C)c1cccc(Br)c1` (stereo not drawn) [Compound 12, 1-phenyl-2-(3-bromophenyl)-1-[2-(7-bromo-3-methoxy)naphthyl]-4-(N,N-dimethylamino)-butan-2-ol], 1.000 µg/mL (≈ 1.71 µM).
Take `CN(C)CCC(O)(c1cccc2ccccc12)C(c1ccccc1)c1cc2cc(Br)ccc2c(Br)c1O` (stereo not drawn) [Compound 34, 1,6-dibromo-3-[1-phenyl 2-(1-naphthyl)-2-hydroxy-4-(N,N-dimethylamino)]butyl-2-naphthol]: the MIC was found to be 4.000 µg/mL (≈ 6.46 µM).
As to `COc1c(C(c2ccccc2)C(O)(CCN(C)C)c2cccc3ccccc23)cc2cc(Br)ccc2c1Br` (stereo not drawn) [Compound 31, 1-phenyl-2-(1-naphthyl)-1-[2-(4,7-dibromo-3-methoxy)naphthyl]-4-(N,N-dimethylamino)-butan-2-ol], the MIC was 0.124 µg/mL (≈ 0.196 µM).
On the same count and under the same terms, the result for `COc1cc2ccc(Br)cc2cc1C(c1ccc(Cl)cc1)C(O)(CCN(C)C)c1cccc(Br)c1` (stereo not drawn) [Compound 15, 1-(4-chlorophenyl)-2-(3-bromophenyl)-1-[2-(7-bromo-3-methoxy)naphthyl]-4-(N,N-dimethylamino)-butan-2-ol] reads 2.166 µg/mL (≈ 3.51 µM); that for `COc1cc2ccc(Br)cc2cc1C(c1ccc(Cl)cc1)C(O)(CCN(C)C)c1ccccc1` (stereo not drawn) [Compound 17, 1-(4-chlorophenyl)-2-phenyl-1-[2-(7-bromo-3-methoxy)naphthyl]-4-(N,N-dimethylamino)-butan-2-ol], 2.000 µg/mL (≈ 3.71 µM); that for `COc1cc2ccc(Br)cc2cc1C(c1ccccc1)C(O)(CCN(C)C)c1ccccc1Br` (stereo not drawn) [Compound 24, 1-phenyl-2-(2-bromophenyl)-1-[2-(7-bromo-3-methoxy)naphthyl]-4-(N,N-dimethylamino)-butan-2-ol], 0.224 µg/mL (≈ 0.384 µM).
In the case of `COc1cc2ccc(Br)cc2cc1C(c1ccccc1)C(O)(CCN(C)C)c1cccc(Br)c1` (stereo not drawn) [Compound 11, 1-phenyl-2-(3-bromophenyl)-1-[2-(7-bromo-3-methoxy)naphthyl]-4-(N,N-dimethylamino)-butan-2-ol], the MIC was 0.103 µg/mL (≈ 0.177 µM).
The same measure, in the same setting: the result for `COc1cc2ccc(Br)cc2cc1C(c1cccc(C)c1)C(O)(CCN(C)C)c1cccc2ccccc12` (stereo not drawn) [Compound 37, 1-(3-methylphenyl)-2-(1-naphthyl)-1-[2-(7-bromo-3-methoxy)naphthyl]-4-(N,N-dimethylamino)-butan-2-ol] reads 0.180 µg/mL and 0.258 µg/mL.
`COc1cc2ccc(Br)cc2cc1C(c1ccc(C)cc1)C(O)(CCN(C)C)c1cccc2ccccc12` (stereo not drawn) [Compound 29, 1-(4-methylphenyl)-2-(1-naphthyl)-1-[2-(7-bromo-3-methoxy)naphthyl]-4-(N,N-dimethylamino)-butan-2-ol] yielded an MIC of 0.222 µg/mL (≈ 0.39 µM).
On the same count and under the same terms, the result for `COc1cc2ccc(Br)cc2cc1C(c1ccccc1)C(O)(CCN(C)C)c1ccccc1Br` (stereo not drawn) [Compound 23, 1-phenyl-2-(2-bromophenyl)-1-[2-(7-bromo-3-methoxy)naphthyl]-4-(N,N-dimethylamino)-butan-2-ol] reads more than 32 µg/mL.

Still in this assay, the particulars now being: Mycobacterium tuberculosis, H37RV, M. tuberculosis H37Rv, 7H9 medium, 37° C., read-out: MIC.
Turning to `COc1cc2ccccc2cc1C(c1ccc(Cl)cc1)C(O)(CCN(C)C)c1ccc(F)cc1F` (stereo not drawn) [Compound 13, 1-(4-chlorophenyl)-2-(2,4-difluorophenyl)-1-[2-(3-methoxy)naphthyl]-4-(N,N-dimethylamino)-butan-2-ol], the MIC was 1 µg/mL (≈ 2.02 µM).
In the case of `COc1cc2ccccc2cc1C(c1ccccc1)C(O)(CCN(C)C)c1cccc2ccccc12` (stereo not drawn) [Compound 1, 1-phenyl-2-(1-naphthyl)-1-[2-(3-methoxy)-naphthyl]-4-(N,N-dimethylamino)-butan-2-ol], the MIC turned out to be 2.05 µg/mL (≈ 4.3 µM).
Still for that read-out and setting: the result for `COc1cc2ccc(Br)cc2cc1C(c1ccc(Cl)cc1)C(O)(CCN(C)C)c1ccc(Br)cc1` (stereo not drawn) [Compound 7, 1-(4-chlorophenyl)-2-(4-bromophenyl)-1-[2-(7-bromo-3-methoxy)naphthyl]-4-(N,N-dimethylamino)-butan-2-ol] reads 1 µg/mL (≈ 1.62 µM).
